In ChEMBL document CHEMBL5260845, “Flavone-based arylamides as potential anticancers: Design, synthesis and in vitro cell-based/cell-free evaluations” (2020) one finds inhibition data, which are given here for two compounds.

The source made the active and inactive calls. No cut-off for these calls is given here.

The term inhibition denotes the change of the read-out against control, counted positive when it falls.

One assay has as its system SK-MEL-28. Briefly: Antiproliferative activity against human SK-MEL-28 cells assessed as cell growth inhibition at 10 uM by SRB assay relative to control. The class given is functional.
The next assay relates to Malme-3M. Kind of assay: Antiproliferative activity against human Malme-3M cells assessed as cell growth inhibition at 10 uM by SRB assay relative to control. Format: functional. On the technique in general: The SRB assay estimates cell density from bound dye.
Assay [1] relates to RPMI-8226. Kind of assay: Antiproliferative activity against human RPMI-8226 cells assessed as cell growth inhibition at 10 uM by SRB assay relative to control. The class given is functional.
The next assay relates to A549. Kind of assay: Antiproliferative activity against human A549 cells assessed as cell growth inhibition at 10 uM by SRB assay. The class given is functional, cell-based.
The next assay relates to NCI-H226. Kind of assay: Antiproliferative activity against human NCI-H226 cells assessed as cell growth inhibition at 10 uM by SRB assay. The class given is functional.
A further assay has as its system NCI-H23. Briefly: Antiproliferative activity against human NCI-H23 cells assessed as cell growth inhibition at 10 uM by SRB assay. Format: functional.
The subject of another assay is HOP-62. Kind of assay: Antiproliferative activity against human HOP-62 cells assessed as cell growth inhibition at 10 uM by SRB assay relative to control. Format: functional.
The subject of a further assay is NCI-H460. Kind of assay: Antiproliferative activity against human NCI-H460 cells assessed as cell growth inhibition at 10 uM by SRB assay relative to control. Format: functional.
A further assay has as its system COLO 205. Briefly: Antiproliferative activity against human COLO 205 cells assessed as cell growth inhibition at 10 uM by SRB assay. Format: functional, cell-based.
The subject of the next assay is HCC 2998. Kind of assay: Antiproliferative activity against human HCC 2998 cells assessed as cell growth inhibition at 10 uM by SRB assay. Format: functional, cell-based.
In another assay the test system is HCT-116. Kind of assay: Antiproliferative activity against human HCT-116 cells assessed as cell growth inhibition at 10 uM by SRB assay. Format: functional, cell-based.
The test system of the next assay is HCT-15. Kind of assay: Antiproliferative activity against human HCT-15 cells assessed as cell growth inhibition at 10 uM by SRB assay. The class given is functional, cell-based.
In a further assay the test system is HT-29. Kind of assay: Antiproliferative activity against human HT-29 cells assessed as cell growth inhibition at 10 uM by SRB assay. The class given is functional, cell-based.
A further assay deals with KM12. Briefly: Antiproliferative activity against human KM12 cells assessed as cell growth inhibition at 10 uM by SRB assay. Format: functional, cell-based.
Another assay relates to SW-620. Briefly: Antiproliferative activity against human SW620 cells assessed as cell growth inhibition at 10 uM by SRB assay. The class given is functional, cell-based.
A further assay has as its system UACC-62. Kind of assay: Antiproliferative activity against human UACC-62 cells assessed as cell growth inhibition at 10 uM by SRB assay relative to control. Format: functional.
Another assay relates to OVCAR-4. Briefly: Antiproliferative activity against human OVCAR-4 cells assessed as cell growth inhibition at 10 uM by SRB assay relative to control. The class given is functional.
The subject of a further assay is OVCAR-8. Briefly: Antiproliferative activity against human OVCAR-8 cells assessed as cell growth inhibition at 10 uM by SRB assay relative to control. The class given is functional.
The test system of another assay is DU-145. Kind of assay: Antiproliferative activity against human DU-145 cells assessed as inhibition of cell growth at 10 uM by SRB assay relative to control. Format: functional.
The test system of assay [2] is PC-3. Kind of assay: Antiproliferative activity against human PC-3 cells assessed as inhibition of cell growth at 10 uM by SRB assay relative to control. Format: functional.
In a further assay the test system is Lung cancer cell line. Briefly: Antiproliferative activity against human lung cancer cells assessed as cell growth inhibition at 10 uM by SRB assay relative to control. The class given is functional.
A further assay relates to Prostatic carcinoma cell. Kind of assay: Antiproliferative activity against human prostatic carcinoma cells assessed as cell growth inhibition at 10 uM by SRB assay relative to control. Format: functional.
Another assay deals with Ovarian cancer cell line. Kind of assay: Antiproliferative activity against human ovarian cancer cells assessed as cell growth inhibition at 10 uM by SRB assay relative to control. Format: functional.
For the next assay, the system named is CCRF-CEM. Briefly: Antiproliferative activity against human CCRF-CEM cells assessed as cell growth inhibition at 10 uM by SRB assay. The class given is functional, cell-based.
For a further assay, the system named is HL-60. Briefly: Antiproliferative activity against human HL-60 cells assessed as cell growth inhibition at 10 uM by SRB assay. Format: functional, cell-based.
The next assay deals with K562. Kind of assay: Antiproliferative activity against human K562 cells assessed as cell growth inhibition at 10 uM by SRB assay. The class given is functional, cell-based.
Another assay concerns MOLT-4. Briefly: Antiproliferative activity against human MOLT-4 cells assessed as cell growth inhibition at 10 uM by SRB assay. Format: functional, cell-based.
Assay [3] concerns RPMI-8226. Briefly: Antiproliferative activity against human RPMI-8226 cells assessed as cell growth inhibition at 10 uM by SRB assay. The class given is functional, cell-based.
The test system of a further assay is SR. Briefly: Antiproliferative activity against human SR cells assessed as cell growth inhibition at 10 uM by SRB assay. The class given is functional, cell-based.
The subject of another assay is EKVX. Kind of assay: Antiproliferative activity against human EKVX cells assessed as cell growth inhibition at 10 uM by SRB assay. Format: functional.
The next assay deals with HOP-92. Briefly: Antiproliferative activity against human HOP-92 cells assessed as cell growth inhibition at 10 uM by SRB assay. The class given is functional, cell-based.
In the next assay the test system is NCI-H522. Briefly: Antiproliferative activity against human NCI-H522 cells assessed as cell growth inhibition at 10 uM by SRB assay. Format: functional, cell-based.
A further assay concerns SF-295. Kind of assay: Antiproliferative activity against human SF-295 cells assessed as cell growth inhibition at 10 uM by SRB assay. The class given is functional, cell-based.
Another assay concerns UO-31. Kind of assay: Antiproliferative activity against human UO-31 cells assessed as inhibition of cell growth at 10 uM by SRB assay relative to control. The class given is functional.
The test system of assay [4] is PC-3. Briefly: Antiproliferative activity against human PC-3 cells assessed as inhibition of cell growth at 10 uM by SRB assay. Format: functional, cell-based.
The next assay deals with Hs-578T. Kind of assay: Antiproliferative activity against human Hs-578T cells assessed as inhibition of cell growth at 10 uM by SRB assay. The class given is functional, cell-based.

With `COc1cc2oc(-c3cccc(C(=O)Nc4ccc(C#N)cc4)c3)cc(=O)c2c(O)c1OC`, the inhibition at 10 µM in the assay on SK-MEL-28 was found to be 67.2%; in the assay on Malme-3M it was 52.3%; in the assay with RPMI-8226 [1] it was 82.6%; in the assay with HOP-62, 31.8%; in the assay with NCI-H460, 81.1%; in the assay on UACC-62, 50.5%. Moreover, the inhibition at 10 µM with OVCAR-4 was 88.3%; in the assay with OVCAR-8 it was 70.9%; in the assay on DU-145 it was 65.8%; in the assay on PC-3 [2] it was 92.1%; in the assay with Lung cancer cell line, over 50%; with Prostatic carcinoma cell, over 50%. Besides, in the assay with Ovarian cancer cell line, the inhibition at 10 µM is over 50%. The inhibition entry with A549, in the assay on NCI-H226, in the assay on NCI-H23, with COLO 205, with HCC 2998 and in the assay on HCT-116 was “Active” each time. Moreover, the inhibition result in the assay with HCT-15, in the assay on HT-29, in the assay on KM12 and in the assay with SW-620 was “Active” each time.

Regarding `COc1cc2oc(-c3ccc(NC(=O)c4ccccc4Br)cc3)cc(=O)c2c(OC)c1OC`, the inhibition entry in the assay with CCRF-CEM, with HL-60, in the assay on K562, in the assay on MOLT-4, in the assay on RPMI-8226 [3] and in the assay with SR was “Active” throughout. Besides, the inhibition result in the assay on HOP-92, in the assay on NCI-H522, in the assay with SF-295, in the assay on UO-31, in the assay with PC-3 [4] and in the assay with Hs-578T was “Active” throughout. Moreover, the inhibition at 10 µM in the assay with EKVX is under 50%; in the assay with NCI-H226, under 50%; with NCI-H23 it was under 50%; in the assay with DU-145 it was 29.6%.
